Experimental data taken from patent publication US20210222225A1, “Medium for Disk Diffusion Method to Evaluate Antibiotic Sensitivity” (priority 2018, published 2021).

How the values were obtained:
KPN K4056_R = experiment: Colistin disk diffusion, guanidine hydrochloride medium, K4056_R; type: cell-based, Klebsiella pnemoniae; details: 30% agar
Description: A concentration of agar particles (BD Diagnostic, Sparks, Md., USA) in Mueller-Hinton broth medium (BD Diagnostic) was adjusted to 5.1 g/L, which is 30% of 17 g/L, and guanidine hydrochloride was added to a concentration of 500 μg/ml, 50 μg/ml, or 5 μg/ml. Then, solidification was performed. On a surface of each medium thus prepared was evenly inoculated each of colistin-susceptible (S) or -resistant (R) Acinetobacter baumannii (ABA) strain, colistin-susceptible (S) or -resistant (R) Klebsiella pnemoniae (KPN) strain, and colistin-susceptible (S) or -resistant (R) Pseudomonas aeruginosa (PAE) strain, and a colistin disk was placed thereon. Then, pictures of a growth inhibition zone, which had been formed clear, around the disk were taken for each strain, and the results are illustrated in FIGS. 8 to 10.

[1] = test system: Pseudomonas aeruginosa ATCC27853 strain; experiment: Colistin disk diffusion on modified Mueller-Hinton agar, PAE; type: cell-based
Description: (§1) To each MHA thus modified was added protamine (Sigma-Aldrich, St Louis, Mo., USA) at a concentration of 100 μg/ml, and solidification was performed. Then, on a surface of the medium was evenly inoculated each of colistin-susceptible (S) or -resistant (R) Acinetobacter calcoaceticus-baumannii complex (ACB) strain, Pseudomonas aeruginosa ATCC27853 strain, Escherichia coli ATCC25922 strain, and mcr-1-harboring Enterobacter aerogenes strain, and a colistin disk was placed thereon. Subsequently, a diameter of a growth inhibition zone (colistin inhibition zone), which had been formed clear by diffusion of colistin to the agar around the colistin disk, was measured.
(§2) As in Example 1, a concentration of agar particles (BD Diagnostic, Sparks, Md., USA) in Mueller-Hinton broth medium (BD Diagnostic) was adjusted to 17 g/L or 5.1 g/L that is 30% of 17 g/L. To select a concentration of protamine, which can enhance diffusion of colistin from a disk without interfering with bacterial growth, while using the protamine at various concentrations, protamine (Sigma-Aldrich, St Louis, Mo., USA) was added to the medium at concentrations of 1 mg/ml, 700 μg/ml, 400 μg/ml, 300 μg/ml, 200 μg/ml, 150 μg/ml, 100 μg/ml, and 50 μg/ml. Each medium thus modified was solidified. Then, on a surface of each medium was evenly inoculated each of colistin-susceptible (S) or -resistant (R) Acinetobacter calcoaceticus-baumannii complex (ACB) strain, Pseudomonas aeruginosa ATCC27853 strain, and mcr-1-harboring Enterobacter aerogenes strain, and a colistin disk was placed thereon. Then, it was determined whether each strain was grown, and a diameter of a growth inhibition zone, which had been formed around the disk, was measured.

[2] = test system: colistin-susceptible (S) Acinetobacter calcoaceticus-baumannii complex (ACB) strain; experiment: Colistin disk diffusion on modified Mueller-Hinton agar, ACB-S; type: cell-based
Description: as §1, §2

[3] = test system: colistin-resistant (R) Acinetobacter calcoaceticus-baumannii complex (ACB) strain; experiment: Colistin disk diffusion on modified Mueller-Hinton agar, ACB-R; type: cell-based
Description: as §1, §2

[4] = 30% agar, protamine 1,000 μg/ml
[5] = 100% agar, protamine 1,000 μg/ml

Substance: colistin
- Disk diffusion (mm) (KPN K4056_R; guanidine hydrochloride 5 μg/ml): 12 mm
- Disk diffusion (mm) (KPN K4056_R; guanidine hydrochloride 50 μg/ml): 12 mm
- Disk diffusion (mm) (KPN K4056_R; guanidine hydrochloride 500 μg/ml): 10 mm
- Disk diffusion (mm) ([1]; 30% agar, protamine 50 μg/ml): 17 mm
- Diameter (mm) of colistin inhibition zone ([1]; 30% agar, protamine 100 μg/ml): 16 mm
- Disk diffusion (mm) ([1]; 30% agar, protamine 100 μg/ml): 18 mm
- Disk diffusion (mm) ([1]; 30% agar, protamine 150 μg/ml): 18 mm
- Disk diffusion (mm) ([1]; 30% agar, protamine 200 μg/ml): 20 mm
- Disk diffusion (mm) ([1]; 30% agar, protamine 300 μg/ml): 6 mm
- Disk diffusion (mm) ([1]; 30% agar, protamine 400 μg/ml): 6 mm
- Disk diffusion (mm) ([1]; 30% agar, protamine 700 μg/ml): 6 mm
- Disk diffusion (mm) [1, 4]: 6 mm
- Diameter (mm) of colistin inhibition zone ([1]; 40% agar, protamine 100 μg/ml): 15 mm
- Diameter (mm) of colistin inhibition zone ([1]; 50% agar, protamine 100 μg/ml): 14 mm
- Diameter (mm) of colistin inhibition zone ([1]; 60% agar, protamine 100 μg/ml): 15 mm
- Diameter (mm) of colistin inhibition zone ([1]; 70% agar, protamine 100 μg/ml): 14 mm
- Diameter (mm) of colistin inhibition zone ([1]; 80% agar, protamine 100 μg/ml): 14 mm
- Diameter (mm) of colistin inhibition zone ([1]; 90% agar, protamine 100 μg/ml): 13 mm
- Disk diffusion (mm) ([1]; 100% agar, protamine 50 μg/ml): 14 mm
- Diameter (mm) of colistin inhibition zone ([1]; 100% agar, protamine 100 μg/ml): 13 mm
- Disk diffusion (mm) ([1]; 100% agar, protamine 100 μg/ml): 14 mm
- Disk diffusion (mm) ([1]; 100% agar, protamine 150 μg/ml): 14 mm
- Disk diffusion (mm) ([1]; 100% agar, protamine 200 μg/ml): 13 mm
- Disk diffusion (mm) ([1]; 100% agar, protamine 300 μg/ml): 14 mm
- Disk diffusion (mm) ([1]; 100% agar, protamine 400 μg/ml): 15 mm
- Disk diffusion (mm) ([1]; 100% agar, protamine 700 μg/ml): 17 mm
- Disk diffusion (mm) [1, 5]: 18 mm
- Disk diffusion (mm) ([2]; 30% agar, protamine 50 μg/ml): 14 mm
- Diameter (mm) of colistin inhibition zone ([2]; 30% agar, protamine 100 μg/ml): 16 mm
- Disk diffusion (mm) ([2]; 30% agar, protamine 100 μg/ml): 15 mm
- Disk diffusion (mm) ([2]; 30% agar, protamine 150 μg/ml): 15 mm
- Disk diffusion (mm) ([2]; 30% agar, protamine 200 μg/ml): 14 mm
- Disk diffusion (mm) ([2]; 30% agar, protamine 300 μg/ml): 6 mm
- Disk diffusion (mm) ([2]; 30% agar, protamine 400 μg/ml): 6 mm
- Disk diffusion (mm) ([2]; 30% agar, protamine 700 μg/ml): 6 mm
- Disk diffusion (mm) [2, 4]: 6 mm
- Diameter (mm) of colistin inhibition zone ([2]; 40% agar, protamine 100 μg/ml): 15 mm
- Diameter (mm) of colistin inhibition zone ([2]; 50% agar, protamine 100 μg/ml): 13 mm
- Diameter (mm) of colistin inhibition zone ([2]; 60% agar, protamine 100 μg/ml): 13 mm
- Diameter (mm) of colistin inhibition zone ([2]; 70% agar, protamine 100 μg/ml): 13 mm
- Diameter (mm) of colistin inhibition zone ([2]; 80% agar, protamine 100 μg/ml): 12 mm
- Diameter (mm) of colistin inhibition zone ([2]; 90% agar, protamine 100 μg/ml): 12 mm
- Disk diffusion (mm) ([2]; 100% agar, protamine 50 μg/ml): 13 mm
- Diameter (mm) of colistin inhibition zone ([2]; 100% agar, protamine 100 μg/ml): 12 mm
- Disk diffusion (mm) ([2]; 100% agar, protamine 100 μg/ml): 12 mm
- Disk diffusion (mm) ([2]; 100% agar, protamine 150 μg/ml): 13 mm
- Disk diffusion (mm) ([2]; 100% agar, protamine 200 μg/ml): 12 mm
- Disk diffusion (mm) ([2]; 100% agar, protamine 300 μg/ml): 13 mm
- Disk diffusion (mm) ([2]; 100% agar, protamine 400 μg/ml): 14 mm
- Disk diffusion (mm) ([2]; 100% agar, protamine 700 μg/ml): 10 mm
- Disk diffusion (mm) [2, 5]: 6 mm
- Disk diffusion (mm) ([3]; 30% agar, protamine 50 μg/ml): 13 mm
- Diameter (mm) of colistin inhibition zone ([3]; 30% agar, protamine 100 μg/ml): 11 mm
- Disk diffusion (mm) ([3]; 30% agar, protamine 100 μg/ml): 11 mm
- Disk diffusion (mm) ([3]; 30% agar, protamine 150 μg/ml): 10 mm
- Disk diffusion (mm) ([3]; 30% agar, protamine 200 μg/ml): 8 mm
- Disk diffusion (mm) ([3]; 30% agar, protamine 300 μg/ml): 6 mm
- Disk diffusion (mm) ([3]; 30% agar, protamine 400 μg/ml): 6 mm
- Disk diffusion (mm) ([3]; 30% agar, protamine 700 μg/ml): 6 mm
- Disk diffusion (mm) [3, 4]: 6 mm
- Diameter (mm) of colistin inhibition zone ([3]; 40% agar, protamine 100 μg/ml): 11 mm
- Diameter (mm) of colistin inhibition zone ([3]; 50% agar, protamine 100 μg/ml): 10 mm
- Diameter (mm) of colistin inhibition zone ([3]; 60% agar, protamine 100 μg/ml): 13 mm
- Diameter (mm) of colistin inhibition zone ([3]; 70% agar, protamine 100 μg/ml): 11 mm
- Diameter (mm) of colistin inhibition zone ([3]; 80% agar, protamine 100 μg/ml): 12 mm
- Diameter (mm) of colistin inhibition zone ([3]; 90% agar, protamine 100 μg/ml): 12 mm
- Disk diffusion (mm) ([3]; 100% agar, protamine 50 μg/ml): 13 mm
- Diameter (mm) of colistin inhibition zone ([3]; 100% agar, protamine 100 μg/ml): 11 mm
- Disk diffusion (mm) ([3]; 100% agar, protamine 100 μg/ml): 12 mm
- Disk diffusion (mm) ([3]; 100% agar, protamine 150 μg/ml): 13 mm
- Disk diffusion (mm) ([3]; 100% agar, protamine 200 μg/ml): 12 mm
- Disk diffusion (mm) ([3]; 100% agar, protamine 300 μg/ml): 12 mm
- Disk diffusion (mm) ([3]; 100% agar, protamine 400 μg/ml): 13 mm
- Disk diffusion (mm) ([3]; 100% agar, protamine 700 μg/ml): 6 mm
- Disk diffusion (mm) [3, 5]: 6 mm
